Laboratory results as given in patent US12729368B2, “Methods and compositions for generating oligodendrocyte progenitor cells” (Trailhead Biosystems Inc., priority 2022, dated 2026).
Values joined by “and” are separate entries in the source; they are usually repeats but may differ in a detail not shown here. Identical values can stand only once.

How the values were obtained:
[1] = system: stage 2 early-OPCs; test: HD-DoE 8-factor model for stage 3 (version 1) on stage 2 early-OPCs; type: cell-based, human
Protocol: (§1) To further differentiate the cells to an oligodendrocyte progenitor identity, additional HD-DoE experiments were performed on the cells that were cultured in stage 1 and stage 2 differentiation media. After 3 days, gene expression of cells in different combinatorial conditions were investigated. At this time, we focused on maximal expression of signature oligodendrocyte progenitor genes such as SOX10, OLIG1 and PDGFRa (Goldman and Kuypers (2015) Development 142:3983-95; Marques et al. (2016) Science 352:1326-1329). In one 8-factor model, individual and combinatorial effects of LDN193189, SUN 11602, Activin A, Biotin, TTNPB, Isoproterenol, linoleic acid and T3+T4 were tested.
The same model was also optimized for maximum expression of PDGFRa at 3510.9. Two factor specifically, TTNPB and Linoleic acid determined the expression level of PDGFRa with factor contribution of 71.6 and 22.1, respectively (FIG. 17). […] The model was also optimized for highest expression of SOX10 at 18.8. In this optimization, TTNPB was the only input that could elevate the expression level of the selected gene (FIG. 18).
Dynamic profile analysis was utilized to explore combination sets that can optimize expression of all three selected genes. […] Since Activin A is the main compound regulating expression level of OLIG1, we investigated the changes in the plots after addition of Activin A and observed that expression level of SOX10 is still in the target range and PDGFRa is expressed at a high level too (2520).

[2] = system: human pluripotent stem cells; test: HD-DoE #1: 8-factor model, 3-day treatment of pluripotent stem cells, gene expression; type: cell-based; conditions: for factor contribution: positive effect; for impact on NKX2-2 and OLIG2 expression levels: dynamic profile, 8-factor model
Excerpt: This example utilizes a method of High-Dimensional Design of Experiments (HD-DoE), as previously described in Bukys et al. (2020) Iscience 23:101346. The method employs computerized design geometries to simultaneously test multiple process inputs and offers mathematical modeling of a deep effector/response space. The method allows for finding combinatorial signaling inputs that control a complex process, such as during cell differentiation. It allows testing of multiple plausible critical process parameters, as such parameters impact output responses, such as gene expression. Because gene expression provides hallmark features of the phenotype of, for example, a human cell, the method can be applied to identify, and understand, which signaling pathways control cell fate. In the current example, the HD-DOE method was applied with the intent to find conditions for induction of oligodendrocyte progenitor-expressed genes, directly from the pluripotent stem cell state.
Specifically, to develop a novel method to generate oligodendrocytes, the impact of agonists and antagonists of multiple signaling pathways (herein called effectors) were tested on expression of two sets of 53 pre-selected genes after a 3-day treatment. These effectors are small molecules that are commonly used during stepwise differentiation of stem cells to specific fates. Choice of the effectors were based on current literature on neural induction in anterior ectoderm and differentiation of stem cells to oligodendrocytes.
To test the effectors, experiments with at least 8 factors were designed that can assess the response of cells to 48 or more different combinations of effectors in a range of concentrations. To analyze the models, we focused on expression of genes expressed during early development of anterior neuroectoderm and oligodendrocytes including NKX2-2, OLIG2, OLIG1, and PDGFRA. The impact of each effector on gene expression level is defined by a parameter called factor contribution that is calculated for each effector during the modeling.
This model tested 8 factors: PD0325901, MK2206, TTNPB, SC79, MHY1485, ZM336372, AGN193109 and AZD3147.

[3] = system: stage 2 early-OPCs; test: HD-DoE 12-factor model for stage 3 (version 1) on stage 2 early-OPCs; type: cell-based, human
Protocol: In another model, the effects of Activin A and TTNPB along with LDN193189, MHY1485, PDGF-AA, AICAR, FGF2, CHIR99021, DBZ, MK2206, Purmorphamine and T3+T4 were tested on gene profile of differentiating cells. When this model was optimized for maximum expression of SOX10 at 54.7, we observed Activin A again had positive regulatory impact on its expression, with factor contribution of 4.7. Other positive factors included MK2206, with the highest factor contribution at 16.2, MHY1485 at 11.49, CHIR99021 at 9.6, DBZ at 9.3, FGF2 at 3.6 and PDGF-AA, with factor contribution less than 3 (FIG. 20).
In this model, we also investigated the conditions of expression of another important OPC gene, CSPG4 (Goldman and Kuypers (2015) Development 142:3983-95: van Tilborg et al. (2018) Glia 66:221-238).
Dynamic profile analysis was used to better assess the impact of the factors on our selected genes and find the combination set that can optimize their expression (FIG. 22). According to this analysis, even though Activin A has a positive effect on SOX10, it decreases level of PDGFRa and OLIG1. […] Moreover, SOX10 is one of the main transcription factors of oligodendrocytes, along with OLIG2 and NKX2-2, that has shown the potential to commit the stem cells to oligodendrocytes in reprogramming efforts (Wang et al. (2014) Proc Natl Acad Sci USA 111:E2885-94; Garciá-León et al. (2018) Stem Cell Reports 10:655-672). […] One of the main challenges of differentiating cells to oligodendrocyte fate is controlling the mixed population and increasing the purity of the culture by committing more cells to oligodendrocyte over neuronal identity. Therefore, DBZ was excluded from the final recipe.
At this point, we investigated the expression profile of a larger group of genes defining oligodendrocyte progenitor population at a later stage, including ID2, CNP and BCAN (Perlman et al. (2020). Glia 68:1291-1303; Goldman and Kuypers (2015) Development 142:3983-95). In this model, these genes were expressed at 1900, 660 and 44, respectively.

[4] = system: cells cultured in stage 1 and stage 2 differentiation media; test: HD-DoE 8-factor model for stage 3 (version 2); type: cell-based, human
Protocol: as §1, with “142:3983-95:” for “142:3983-95;”, “TTNPB (an RA agonist), CHIR99021, FGF-2, IGF-1, AGN193109, Purmorphamine, MHY1485 (a mTOR pathway agonist)” for “LDN193189, SUN 11602, Activin A, Biotin, TTNPB, Isoproterenol, linoleic acid”, “SC79 (an AKT pathway agonist)” for “T3+T4”, “tested to guide the cells toward a SOX10/PDGFRa positive population. […] CHIR99021 was also positive, with a factor contribution of 8.1 (FIG. 33).” for “tested.”
Other positive factors were IGF-1, with a factor contribution of 11.2, CHIR99021, with a factor contribution of 8.5 and TTNPB, with a factor contribution below 1 (FIG. 34).
To confirm the impact of TTNPB, FGF-2 and IGF-1 on a bigger scale, we investigated the expression profile of a larger group of genes defining late oligodendrocyte progenitor population, such as ID2, CSPG4, FYN, SOX8, PLP1 and BCAN (Perlman et al. (2020). Glia 68:1291-1303; Goldman and Kuypers (2015) Development 142:3983-95; van Tilborg et al. (2018) Glia 66:221-238) and neuronal genes such as NEUROD1, NEUROG1 and NEUROG2 in presence of IGF-1, FGF-2 or TTNPB.

[5] = system: human pluripotent stem cells; test: HD-DoE #2: 13-factor model, differentiation toward anterior neuroectoderm, gene expression; type: cell-based; conditions: model optimized for highest expression of FEZF2 at 4466; positive
Excerpt: To further enhance the conditions for oligodendrocyte differentiation from pluripotency, we performed an additional HD-DoE experiment. We obtained additional gene regulatory models that were used for preparation of a differentiation protocol. The basis of this was a 13-factor HD-DoE experiment with focus on initiation of differentiation of cells toward anterior neuroectoderm. In this model, we focused on expression of FEZF2 and OTX2.
As shown in the results summarized in FIG. 4, the model was optimized for highest expression of OTX2 at 12755.9. According to the model of high expression of OTX2, seven effectors had positive contribution including MK2206, PD0325901, CHIR99021, LDN193189, Go6983, PD173074 and BLU9931 with highest factor contribution of 22.2 for MK2206 and lowest factor contribution of 1.7 for PD173074 and BLU9931.
As shown in the results summarized in FIG. 5, the model was optimized for highest expression of FEZF2 at 4466. When the model was optimized for maximum expression level of FEZF2, three effectors including LDN193189 with factor contribution of 19.5, PD0325901 with factor contribution of 14.6 and MK2206 with factor contribution of 12.3 were common with previous condition and three new effectors including purmorphamine-500 nM, XAV939 and SC79 were introduced.
As shown in the results summarized in FIG. 6, to fine-tune the recipe and find the optimum combination of factors for high expression of both OTX2 and FEZF2, dynamic profiling analysis was done. […] Therefore, these two factors were added to the optimized culture recipe.

[6] = system: pre-OPCs; test: HD-DoE 12-factor model for stage 2 (version 1), 3 days on stage 1 pre-OPCs; type: cell-based, human; conditions: optimized for maximum expression of OLIG2 at 1841.6
Excerpt: To engineer the recipe of stage 2 of differentiation, cells were first cultured in the stage 1 media described in Example 1 and then treated with combinations of 8 or 12 factors for 3 days and the gene expression of cells in each condition was modeled. At this point, due to short duration of culture (only six days in vitro), we decided to focus on maximal expression of OLIG2 and maintenance of high expression of NKX2-2, while initiating expression of SOX10, OLIG1 and PDGFRa, to guide the cells towards oligodendrocyte fate (Emery and Lu (2015). Cold Spring Harb Perspect Biol. 7:a020461; Perlman et al. (2020). Glia 68:1291-1303; Goldman and. Kuypers (2015) Development 142:3983-95).
In one 12-factor model, the individual and combinatorial impact of SUN 11602 an agonist for FGF signaling pathway, FGF2, Activin A an activator of one of the receptors of TGF-b superfamily, A 8301, an inhibitor of TGF-b pathway, CHIR99021 a WNT activator, AGN193109 a RA antagonist, MK2206 an AKT inhibitor, Purmorphamine an agonist of SHH signaling pathway, AZD3147 an antagonist of mTOR pathway, MHY1485 an agonist of mTOR pathway, SC79 an agonist of AKT pathway and G06983 an inhibitor of PKC pathway, were tested.
Dynamic profile analysis was used to assess the expression levels of other genes of interests, such as NKX2-2, OLIG1 and SOX10, while the model is maximized for OLIG2. Activin A and SUN 11602 were brought down to zero due to their very low factor contribution. We observed when the model is optimized, the expression level of NKX2-2 is at 3000, PDGFRa at 1000, OLIG1 at 80 and SOX10 at 15 (FIG. 12).

[7] = optimized for maximum expression of PDGFRa at 3510.9, positive
[8] = model optimized for maximum expression of NKX2-2
[9] = model optimized for maximum expression of PDGFRA
[10] = optimized for maximum expression of OLIG1 at 256, positive impact

CCCCC/C=C\C/C=C\CCCCCCCC(=O)O [Linoleic acid]
factor contribution [1, 7]: 22.1

C/C(=C\c1ccc(C(=O)O)cc1)c1ccc2c(c1)C(C)(C)CCC2(C)C [TTNPB]
factor contribution [2, 8]: 31.3
factor contribution [2, 9]: 49.01
factor contribution ([1]; optimized for highest expression of SOX10 at 18.8, positive): 8
factor contribution [1, 10]: 19.11 and 19.1
factor contribution [1, 7]: 71.6
factor contribution ([3]; optimized for maximum expression of CSPG4 at 38.6, positive): 15.96 and 15.9
effect on late OPC genes and neuronal genes ([4]; factor plots vs concentration): negative effect of TTNPB on OPC genes and its positive effect on neuronal genes
factor contribution ([4]; optimized for SOX10 at 41.04, positive): 17.98
factor contribution ([4]; optimized for maximum expression of PDGFRa at 853.4, positive): below 1

Cc1ccc(NC(=O)c2cccc(N(C)C)c2)cc1NC(=O)c1ccc(O)cc1 [ZM336372]
impact on NKX2-2 and OLIG2 expression levels [2]: negatively impacting
factor contribution [2, 9]: < 1

c1ccc2c(-c3cnn4cc(-c5ccc(N6CCNCC6)cc5)cnc34)ccnc2c1 [LDN193189]
factor contribution [5]: 19.5
factor contribution [1, 10]: 10.8
factor contribution ([3]; optimized for maximum expression of CSPG4 at 38.6, negative impact): 16.9

CCOC(=O)C1=C(N)Oc2ccc(Cl)cc2C1C(C#N)C(=O)OCC (centres unmarked) [SC79]
factor contribution [2, 8]: 1.47
factor contribution ([6]; positive regulatory effect): 3.6
factor contribution ([4]; optimized for SOX10 at 41.04, negative impact): 30.2

O=[N+]([O-])c1ccc(Nc2nc(N3CCOCC3)nc(N3CCOCC3)n2)cc1 [MHY1485]
factor contribution [2, 8]: 13.8
factor contribution [2, 9]: 13.4
factor contribution ([6]; negative impact): 22.5
factor contribution ([3]; optimized for maximum expression of SOX10 at 54.7, positive): 11.49 and 11.5

Cc1c(C)c(NCC(=O)N(C)C2CCN(Cc3ccc(C(N)=O)cc3)CC2)c(C)c(C)c1N [SUN 11602]
factor contribution [1, 10]: 3.7

O=C(NOC[C@H](O)CO)c1ccc(F)c(F)c1Nc1ccc(I)cc1F [PD0325901]
impact on NKX2-2 and OLIG2 expression levels [2]: negatively impacting
factor contribution [2, 9]: 30.6 and 30.05
factor contribution [5]: 14.6
